Test results published in US20250206751A1, “HETEROCYCLIC COMPOUND FOR INDUCING DEGRADATION OF G12D MUTANT KRAS PROTEIN” (Astellas Pharma Inc., priority 2022, published 2025).

Assays:
KRAS G12D protein = target: T1, KRAS G12D protein (Homo sapiens, UniProt P01116, G12D); experiment: KRAS degradation activity by Cell ELISA in AsPC-1 (Test Example 1); format: cell-based; details: AsPC-1 cells, cultured overnight with compound, corrected with β-actin, read-out: DC50 (50% degradation concentration of the amounts of KRAS)
T1 construct: host or cells: AsPC-1
Procedure, shortened: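 AsPC-1 cells (KRAS G12D), 2.0×10^4/well, treated overnight with compound (10 points, 10 μM–0.3 nM final) in RPMI 1640/10% FBS. Fixed cells immunostained for G12D-specific Ras and β-actin, with near-IR fluorescence read. Ras/actin ratio scaled DMSO = 0% and actin-only = 100%, and DC50 fitted by Sigmoid-Emax regression.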

[1] = system: human G12D mutant KRAS-positive pancreatic cancer line AsPC-1; experiment: Non-anchorage-dependent cell growth inhibition, spheroid 3D cell culture (Test Example 3); format: cell-based; details: AsPC-1 spheroid 3D culture, 6 days, CellTiter Glo 2.0
Procedure, shortened: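 AsPC-1 spheroids, 5×10^2 cells per well on low-adhesion round-bottom plates in RPMI 1640/10% FBS, dosed next day at 10 or 6 points spanning 10 μM to 0.3 nM final for 6 days at 37° C., 5% CO2. Viability by CellTiter Glo 2.0 luminescence; IC50 by Sigmoid-Emax regression, DMSO 100% and cell-free medium 0%.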

T1 sequence (P01116 1-188 isoform P01116-2 G12D): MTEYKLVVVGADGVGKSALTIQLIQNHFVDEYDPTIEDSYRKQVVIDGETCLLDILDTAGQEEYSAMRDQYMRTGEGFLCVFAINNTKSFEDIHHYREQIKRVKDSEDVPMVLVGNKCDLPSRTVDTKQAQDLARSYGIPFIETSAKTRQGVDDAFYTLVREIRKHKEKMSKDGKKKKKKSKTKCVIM

Row | Structure (SMILES) | DC50 (KRAS G12D protein) | IC50 ([1]; Homo sapiens, ASPC1, 144 h) | IC50 [1]
1 | Cc1ncsc1-c1ccc([C@H](CO)NC(=O)[C@@H]2C[C@@H](O)CN2C(=O)[C@H](C(C)C)n2cc(-c3ccc(COc4c(-c5c(C)c(F)cc6[nH]ncc56)c(C5CC5)cc5c(N(C)[C@H]6CCNC6)nc(OC[C@H]6CCCO6)nc45)cc3)nn2)cc1 (atropisomer, axis not shown; (M)) [Example 9, (4R)-1-[(2S)-2-{4-[4-({[(7M) 6-cyclopropyl-7-(6-fluoro-5-methyl-1H-indazol-4-yl)-4-{methyl[(3S)-pyrrolidin-3-yl]amino}-2-{[(2R)-oxolan-2-yl]methoxy}quinazolin-8-yl}oxy}methyl)phenyl]-1H-1,2,3-triazol-1-yl}-3-methylbutanoyl]-4-hydroxy-N-{(1R)-2-hydroxy-1-[4-(4-methyl-1,3-thiazol-5-yl)phenyl]ethyl}-L-prolinamide] | 15 nM | 9 nM | –
2 | CO[C@@H](C)COc1nc(N(C)[C@@H]2CCNC2)c2cc(C3CC3)c(-c3c(C)c(F)cc4[nH]ncc34)c(OCc3ccc(-c4cn([C@H](C(=O)N5C[C@H](O)C[C@H]5C(=O)N[C@@H](CO)c5ccc(-c6scnc6C)cc5)C(C)C)nn4)cc3)c2n1 (atropisomer, axis not shown; (M)) [Example 53] | 7 nM | 10 nM | –
3 | CCN(c1nc(OC[C@H](C)OC)nc2c(OCc3ccc(-c4cn([C@H](C(=O)N5C[C@H](O)C[C@H]5C(=O)N[C@@H](CO)c5ccc(-c6scnc6C)cc5)C(C)C)nn4)cc3)c(-c3c(C)c(F)cc4[nH]ncc34)c(C3CC3)cc12)[C@H]1CCNC1 (atropisomer, axis not shown; (M)) [Example 50, (4R)-1-[(2S)-2-(4-{4-[({(7M)-6-cyclopropyl-4-{ethyl[(3S)-pyrrolidin-3-yl]amino}-7-(6-fluoro-5-methyl-1H-indazol-4-yl)-2-[(2S)-2-methoxypropoxy]quinazolin-8-yl}oxy)methyl)phenyl}-1H-1,2,3-triazol-1-yl)-3-methylbutanoyl]-4-hydroxy-N-{(1R)-2-hydroxy-1-[4-(4-methyl-1,3-thiazol-5-yl)phenyl]ethyl}-L-prolinamide] | 18 nM | 8 nM | –
4 | CCn1nccc1-c1ccc([C@H](CO)NC(=O)[C@@H]2C[C@@H](O)CN2C(=O)[C@H](C(C)C)n2cc(-c3ccc(COc4c(-c5c(C)c(F)cc6[nH]ncc56)c(C5CC5)cc5c(N(C)[C@H]6CCNC6)nc(OC[C@H](C)OC)nc45)cc3)nn2)cc1 (atropisomer, axis not shown; (M)) [Example 13] | 10 nM | 10 nM | –
5 | CO[C@@H](C)COc1cc(N(C)[C@H]2CCNC2)c2cc(C3CC3)c(-c3c(C)c(F)cc4[nH]ncc34)c(OCc3ccc(-c4cn([C@H](C(=O)N5C[C@H](O)C[C@H]5C(=O)N[C@@H](CO)c5ccc(-c6scnc6C)cc5)C(C)C)nn4)cc3)c2n1 (atropisomer, axis not shown; (M)) [Example 11, (4R)-1-[(2S)-2-{4-[4-({[(7M)-6-cyclopropyl-7-(6-fluoro-5-methyl-1H-indazol-4-yl)-2-[(2S)-2-methoxypropoxy]-4-{methyl[(3S)-pyrrolidin-3-yl]amino}quinazolin-8-yl]oxy}methyl)phenyl]-1H-1,2,3-triazol-1-yl}-3-methylbutanoyl]-4-hydroxy-N-{(1R)-2-hydroxy-1-[4-(4-methyl-1,3-thiazol-5-yl)phenyl]ethyl}-L-prolinamide] | 10 nM | – | 19 nM
